# Test results as given in publication PMC7531004, “Discovery of gramicidin A analogues with altered activities by multidimensional screening of a one-bead-one-compound library” (Nature Communications, 2020).
# Where a SMILES comes first, the peptide text is derived from it. [ ]: non-standard residue; d: D form. The star is where a group is joined. NHCH2CH2OH = OCCN*; For = O=C*
# Key:
# [1] = system: P388 mouse leukemia cells; conditions: 92 h
# How it was run: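 First, library peptide stocks are diluted 250-fold in RPMI1640 with 10% heat-inactivated FBS. Next, they are mixed with P388 cells to give 1 × 10^4 cells/mL and incubated 92 h at 37 °C, 5% CO2. Finally, viability (%) is scored by WST-1 absorbance at 415 nm.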
# [2] = H+/Na+ transport assay of bead-derived peptides (one-point); type: biochemical; design: key: relative activity; mean of two control wells = 1.00; conditions: bead-derived peptide solution, EYPC/EYPG LUVs;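 further: relative to parent gramicidin A activity set to 1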
# How it was run: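 One-point screen: peptide + pyranine-loaded LUVs, 30 min RT with vortexing, 96-well. Read-out is fluorescence intensity scaled as 100 × (Ix – I0)/(Imax – I0). Imax from Triton X-100, I0 from untreated vesicles, and the mean of the two control wells is set to 1.00.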
# [3] = system: Streptococcus pyogenes SSI-9; experiment: Antibacterial activity assay of bead-derived peptides (three concentrations); type: cell-based; design: key: +++: inhibition by the 640-fold diluted peptide solution; ++: inhibition by the 160-fold diluted solution; +: inhibition by the 40-fold diluted solution; -: no inhibition; conditions: S. pyogenes, bead-derived peptide solution, three concentrations
# How it was run: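 Bead-derived library peptide stocks in DMSO were tested undiluted and after 4- and 16-fold DMSO dilution against S. pyogenes SSI-9 (2 × 10^5 CFU/well) in cation-adjusted Mueller Hinton Broth with 5% laked horse blood. After 18 h at 37 °C, wells were scored for precipitation of grown cells.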
Compound,cell viability/% [1] [%],H+/Na+ transport activity normalized against the value of 1 (1.00) [2],antibacterial activity [3]
CNC(=O)C[C@@H](NC(=O)[C@@H](NC(=O)[C@H](NC(=O)[C@H](C)NC(=O)[C@@H](CC(C)C)NC(=O)[C@H](C)NC(=O)CNC(=O)[C@@H](NC=O)C(C)C)C(C)C)C(C)C)C(=O)N[C@@H](Cc1c[nH]c2ccccc12)C(=O)N[C@H](CC(C)C)C(=O)N[C@@H](Cc1c[nH]c2ccccc12)C(=O)N[C@H](CC(C)C)C(=O)N[C@@H](Cc1c[nH]c2ccccc12)C(=O)N[C@@H](C(=O)N[C@@H](Cc1c[nH]c2ccccc12)C(=O)NCCO)C(C)C [compound 8831] (For-VGA[dL]A[dV]V[dD](NHMe)W[dL]W[dL]W[dV]W-NHCH2CH2OH),81.1,1.23,-
CC(C)C[C@@H](NC(=O)[C@H](C)NC(=O)CNC(=O)[C@@H](NC=O)C(C)C)C(=O)N[C@@H](C)C(=O)N[C@H](CC(C)C)C(=O)N[C@H](C(=O)N[C@@H](C(=O)N[C@@H](Cc1c[nH]c2ccccc12)C(=O)N[C@@H](C(=O)N[C@@H](Cc1c[nH]c2ccccc12)C(=O)N[C@H](CC(C)C)C(=O)N[C@@H](Cc1c[nH]c2ccccc12)C(=O)N[C@H](CC(C)C)C(=O)N[C@@H](Cc1c[nH]c2ccccc12)C(=O)NCCO)C(C)C)C(C)C)C(C)C [compound 8858] (For-VGA[dL]A[dL]V[dV]W[dV]W[dL]W[dL]W-NHCH2CH2OH),84.7,1.05,+
CC(C)C[C@@H](NC(=O)[C@H](C)NC(=O)CNC(=O)[C@@H](NC=O)C(C)C)C(=O)N[C@@H](C)C(=O)N[C@@H](C(=O)N[C@H](C(=O)N[C@H](CC(C)C)C(=O)N[C@@H](Cc1c[nH]c2ccccc12)C(=O)N[C@@H](C(=O)N[C@@H](Cc1c[nH]c2ccccc12)C(=O)N[C@H](CC(C)C)C(=O)N[C@@H](Cc1c[nH]c2ccccc12)C(=O)N[C@@H](C(=O)N[C@@H](Cc1c[nH]c2ccccc12)C(=O)NCCO)[C@H](C)O)C(C)C)C(C)C)C(C)C [compound 8906] (For-VGA[dL]A[dV]V[dL]W[dV]W[dL]W[dT]W-NHCH2CH2OH),79.1,1.08,+
CC(C)C[C@@H](NC(=O)[C@H](C)NC(=O)[C@H](NC(=O)[C@H](C)NC(=O)CNC(=O)[C@@H](NC=O)C(C)C)C(C)C)C(=O)N[C@H](C(=O)N[C@@H](C(=O)N[C@@H](Cc1c[nH]c2ccccc12)C(=O)N[C@@H](C(=O)N[C@@H](Cc1c[nH]c2ccccc12)C(=O)N[C@@H](C(=O)N[C@@H](Cc1c[nH]c2ccccc12)C(=O)N[C@@H](C(=O)N[C@@H](Cc1c[nH]c2ccccc12)C(=O)NCCO)C(C)C)C(C)C)C(C)C)C(C)C)C(C)C [compound 8909] (For-VGA[dV]A[dL]V[dV]W[dV]W[dV]W[dV]W-NHCH2CH2OH),85.9,1.04,+
CC(C)C[C@@H](NC(=O)[C@H](Cc1c[nH]c2ccccc12)NC(=O)[C@@H](CC(C)C)NC(=O)[C@@H](NC(=O)[C@H](NC(=O)[C@H](C)NC(=O)[C@H](NC(=O)[C@H](C)NC(=O)CNC(=O)[C@@H](NC=O)C(C)C)C(C)C)C(C)C)C(C)C)C(=O)N[C@@H](Cc1c[nH]c2ccccc12)C(=O)N[C@@H](C(=O)N[C@@H](Cc1c[nH]c2ccccc12)C(=O)N[C@@H](C(=O)N[C@@H](Cc1c[nH]c2ccccc12)C(=O)NCCO)C(C)C)C(C)C [compound 8969] (For-VGA[dV]A[dV]V[dL]W[dL]W[dV]W[dV]W-NHCH2CH2OH),8.7,1.09,-
CNC(=O)C[C@@H](NC(=O)[C@@H](NC(=O)[C@H](NC(=O)[C@H](C)NC(=O)[C@H](NC(=O)[C@H](C)NC(=O)CNC(=O)[C@@H](NC=O)C(C)C)C(C)C)C(C)C)C(C)C)C(=O)N[C@@H](Cc1c[nH]c2ccccc12)C(=O)N[C@H](CC(C)C)C(=O)N[C@@H](Cc1c[nH]c2ccccc12)C(=O)N[C@H](CC(C)C)C(=O)N[C@@H](Cc1c[nH]c2ccccc12)C(=O)N[C@H](CC(C)C)C(=O)N[C@@H](Cc1c[nH]c2ccccc12)C(=O)NCCO [compound 8982] (For-VGA[dV]A[dV]V[dD](NHMe)W[dL]W[dL]W[dL]W-NHCH2CH2OH),49.1,1.21,-
CC(C)C[C@@H](NC(=O)[C@H](C)NC(=O)[C@H](NC(=O)[C@H](C)NC(=O)CNC(=O)[C@@H](NC=O)C(C)C)C(C)C)C(=O)N[C@H](C(=O)N[C@@H](C(=O)N[C@@H](Cc1c[nH]c2ccccc12)C(=O)N[C@H](CC(C)C)C(=O)N[C@@H](Cc1c[nH]c2ccccc12)C(=O)N[C@H](CC(C)C)C(=O)N[C@@H](Cc1c[nH]c2ccccc12)C(=O)N[C@@H](C(=O)N[C@@H](Cc1c[nH]c2ccccc12)C(=O)NCCO)C(C)C)[C@H](C)O)C(C)C [compound 8984] (For-VGA[dV]A[dL]V[dT]W[dL]W[dL]W[dV]W-NHCH2CH2OH),57.9,1.12,-
CNC(=O)C[C@@H](NC(=O)[C@@H](NC(=O)[C@@H](CC(C)C)NC(=O)[C@H](C)NC(=O)[C@@H](CC(C)C)NC(=O)[C@H](C)NC(=O)CNC(=O)[C@@H](NC=O)C(C)C)C(C)C)C(=O)N[C@@H](Cc1c[nH]c2ccccc12)C(=O)N[C@H](CC(C)C)C(=O)N[C@@H](Cc1c[nH]c2ccccc12)C(=O)N[C@H](CC(C)C)C(=O)N[C@@H](Cc1c[nH]c2ccccc12)C(=O)N[C@@H](C(=O)N[C@@H](Cc1c[nH]c2ccccc12)C(=O)NCCO)[C@H](C)O [compound 8992] (For-VGA[dL]A[dL]V[dD](NHMe)W[dL]W[dL]W[dT]W-NHCH2CH2OH),56.1,1.07,-
CC(C)C[C@@H](NC(=O)[C@H](Cc1c[nH]c2ccccc12)NC(=O)[C@@H](CC(C)C)NC(=O)[C@H](Cc1c[nH]c2ccccc12)NC(=O)[C@H](NC(=O)[C@H](Cc1c[nH]c2ccccc12)NC(=O)[C@@H](CC(C)C)NC(=O)[C@@H](NC(=O)[C@H](NC(=O)[C@H](C)NC(=O)[C@H](NC(=O)[C@H](C)NC(=O)CNC(=O)[C@@H](NC=O)C(C)C)C(C)C)C(C)C)C(C)C)C(C)C)C(=O)N[C@@H](Cc1c[nH]c2ccccc12)C(=O)NCCO [compound 8999] (For-VGA[dV]A[dV]V[dL]W[dV]W[dL]W[dL]W-NHCH2CH2OH),96.1,1.03,+
CC(C)C[C@@H](NC(=O)[C@H](C)NC(=O)CNC(=O)[C@@H](NC=O)C(C)C)C(=O)N[C@@H](C)C(=O)N[C@@H](C(=O)N[C@H](C(=O)N[C@@H](C(=O)N[C@@H](Cc1c[nH]c2ccccc12)C(=O)N[C@H](CC(C)C)C(=O)N[C@@H](Cc1c[nH]c2ccccc12)C(=O)N[C@H](CC(C)C)C(=O)N[C@@H](Cc1c[nH]c2ccccc12)C(=O)N[C@H](CC(C)C)C(=O)N[C@@H](Cc1c[nH]c2ccccc12)C(=O)NCCO)C(C)C)C(C)C)C(C)C [compound 9000] (For-VGA[dL]A[dV]V[dV]W[dL]W[dL]W[dL]W-NHCH2CH2OH),7.4,1.21,+
